Data taken from PMC9540480 (Clinical Pharmacology and Therapeutics, 2022).
In brackets after ≈: the same amount, converted by molar mass.

Assays:
[1] = phase I study in healthy participants; cited from earlier work
[2] = cited from earlier work
[3] = cited from earlier work; remark: listed apart in the source
[4] = system: ex vivo-stimulated IFN-α secretion (TLR7/8); type: in vivo, human
[5] = system: IFN-α-accelerated NZB/W mouse model of lupus; conditions: cited from earlier work
aldehyde oxidase enzyme = conditions: shown in vitro; cited from earlier work
Caco-2 = conditions: cited from earlier work
[6] = Population PK model of oral enpatoran, phase I healthy participant study; type: in vivo, human; conditions: interindividual variability, PopPK model
[7] = system: BXSB-Yaa mouse model of lupus; conditions: cited from earlier work
IL-6 secretion (TLR7/8) = conditions: mice, mouse models of lupus; cited from earlier work
[8] = system: ex vivo-stimulated IL-6 secretion (TLR7/8); type: in vivo, human

N#Cc1ccc(N2C[C@H](N)C[C@H](C(F)(F)F)C2)c2cccnc12 [enpatoran, Enpatoran]
tolerability [1]: well‐tolerated
logP [2]: 2
F (fraction of the oral dose systemically available) [3]: > 85%
IC90 ([4]; Homo sapiens): 0.0221 µg/mL (≈ 0.069 µM)
inhibition of cytokine release with increasing enpatoran concentrations ([4]; IFN-α, complete inhibition): 100%
Hill factor ([4]; ex vivo-stimulated IFN-α): > 1.5
IC60 ([4]; ex vivo-stimulated IFN-α, derived from IC50 and Hill factor): 0.00843 µg/mL (≈ 0.0263 µM)
doses suppressing disease development [5]: ≥ 1 mg/kg
metabolic route (aldehyde oxidase enzyme): metabolism via the aldehyde oxidase enzyme
Caco-2 permeability (Caco-2): 26 ×10⁻⁶ cm/s
IIV CL/F [6]: 27.5 %CV
doses suppressing disease development [7]: ≥ 1 mg/kg
lowest (minimally) efficacious dose (IL-6 secretion (TLR7/8)): 1 mg/kg
IC90 ([8]; Homo sapiens): 0.0155 µg/mL (≈ 0.0484 µM)
inhibition of cytokine release with increasing enpatoran concentrations ([8]; IL-6, complete inhibition): 100%
Hill factor ([8]; ex vivo-stimulated IL-6): > 1.5
IC60 ([8]; ex vivo-stimulated IL-6, derived from IC50 and Hill factor): 0.00559 µg/mL (≈ 0.0175 µM)
